Results taken from patent publication US6709679B2, “Antineoplastic conjugates of transferin, albumin and polyethylene glycol” (priority 1996, dated 2004).

System: mammary carcinoma MCF-7
Assay: xeno-transplantable naked-mouse model, mammary carcinoma MCF-7 s.c.
Format: in vivo, mice (Ncr:nu/nu female)
Procedure: The dose refers to the amount of doxorubicin available. […] In the case of the highest dose employed in the experiment (12 mg/kg), there appears a very high lethalness (5 of 7 and 7 of 7 animals, respectively) in the therapy with doxorubicin.

`COc1cccc2c1C(=O)c1c(O)c3c(c(O)c1C2=O)C[C@@](O)(C(=O)CO)C[C@@H]3O[C@H]1C[C@H](N)[C@H](O)[C@H](C)O1` [doxorubicin] was tested, and the “optimum TIC (%)” value (dose 4 mg/kg/inj. i.v. day 16 and 23) was 61%, the “optimum TIC (%)” value (dose 8 mg/kg/inj. i.v. day 16 and 23) was 39% and the “mortality (d)” value (dose 8 mg/kg/inj. i.v. day 16 and 23, number of deaths (day), 8 mice) was 1 (26). The “mortality (d)” value (dose 12 mg/kg/inj. i.v. day 16 and 23, number of deaths (days), 7 mice) was 7 (25-33).
